# Paper PMC10035951, “Selenium-analogs based on natural sources as cancer-associated carbonic anhydrase isoforms IX and XII inhibitors” (Journal of Enzyme Inhibition and Medicinal Chemistry, 2023)
# Where two headings read alike, the source gives them in different places.
# Key:
# hCA II = target: T1, hCA II (Homo sapiens, UniProt P00918); experiment: CA catalysed CO2 hydration, stopped-flow inhibition; type: biochemical
# T1 construct: made in house
# Description: (§1) The uncatalyzed rates were determined in the same manner and subtracted from the total observed rates. Stock solutions of inhibitor (0.1 mM) were prepared in distilled − deionized water and dilutions up to 0.01 nM were done thereafter with the assay buffer. Inhibitor and enzyme solutions were preincubated together for 15 min at room temperature before assay to allow for the formation of the E − I complex. The inhibition constants were obtained by nonlinear least-squares methods using PRISM 3 and the Cheng − Prusoff equation, as reported earlier,[39]^,[40] and represent the mean from at least three different determinations. […] All human CA (hCA) isoforms were recombinant ones obtained in-house as reported earlier.[41]^,[42]
# hCA IX = target: T2, hCA IX (Homo sapiens, UniProt Q16790); experiment: as above; type: biochemical; details: for Ki: recombinant hCA IX, stopped-flow CO2 hydration, 15 min preincubation
# T2 construct: made in house
# Description: as §1
# hCA I = target: T3, hCA I (Homo sapiens, UniProt P00915); experiment: as above; type: biochemical
# T3 construct: made in house
# T3 sequence (P00915 whole entry): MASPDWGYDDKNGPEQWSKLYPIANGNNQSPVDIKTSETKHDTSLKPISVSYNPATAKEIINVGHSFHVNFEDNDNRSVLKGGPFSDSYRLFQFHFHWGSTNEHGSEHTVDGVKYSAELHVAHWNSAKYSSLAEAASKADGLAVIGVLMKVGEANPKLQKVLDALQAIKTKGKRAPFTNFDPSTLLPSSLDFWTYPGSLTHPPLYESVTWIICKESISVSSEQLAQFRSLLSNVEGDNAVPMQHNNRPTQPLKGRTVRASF
# Description: as §1
# hCA XII = target: T4, hCA XII (Homo sapiens, UniProt O43570); experiment: as above; type: biochemical
# T4 construct: made in house
# T4 sequence (O43570 25-354): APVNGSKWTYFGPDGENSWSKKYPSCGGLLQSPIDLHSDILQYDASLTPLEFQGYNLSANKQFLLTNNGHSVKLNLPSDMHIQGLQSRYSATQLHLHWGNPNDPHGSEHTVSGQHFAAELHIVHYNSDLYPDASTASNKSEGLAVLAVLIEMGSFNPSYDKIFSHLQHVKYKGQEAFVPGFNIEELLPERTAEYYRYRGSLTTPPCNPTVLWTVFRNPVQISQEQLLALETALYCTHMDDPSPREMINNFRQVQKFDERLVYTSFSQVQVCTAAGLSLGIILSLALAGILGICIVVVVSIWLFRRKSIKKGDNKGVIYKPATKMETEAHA
# Description: An Applied Photophysics stopped-flow instrument has been used for assaying the CA catalysed CO2 hydration activity.[38] Phenol red (at a concentration of 0.2 mM) has been used as an indicator, working at the absorbance maximum of 557 nm, with 20 mM Hepes (pH 7.5) as a buffer and 20 mM Na2SO4 (for maintaining constant the ionic strength), following the initial rates of the CA-catalysed CO2 hydration reaction for a period of 10–100 s. The CO2 concentrations ranged from 1.7 to 17 mM for the determination of the kinetic parameters and inhibition constants. […]. The uncatalyzed rates were determined in the same manner and subtracted from the total observed rates. Stock solutions of inhibitor (0.1 mM) were prepared in distilled − deionized water and dilutions up to 0.01 nM were done thereafter with the assay buffer. Inhibitor and enzyme solutions were preincubated together for 15 min at room temperature before assay to allow for the formation of the E − I complex. The inhibition constants were obtained by nonlinear least-squares methods using PRISM 3 and the Cheng − Prusoff equation, as reported earlier,[39]^,[40] and represent the mean from at least three different determinations. The enzyme concentrations were in the range 3–11 nM. All human CA (hCA) isoforms were recombinant ones obtained in-house as reported earlier.[41]^,[42]
# [1] = system: hCA isoforms I, II, VA, IX, and XII; experiment: CA inhibition, summary statements over all tested isoforms; type: biochemical, human; details: for isoform selectivity (in words): from the Ki values of Table 1; for Ki: all CA isoforms tested for series b, read-out: Ki range over all CA isoforms
# Description: An Applied Photophysics stopped-flow instrument has been used for assaying the CA catalysed CO2 hydration activity.[38] Phenol red (at a concentration of 0.2 mM) has been used as an indicator, working at the absorbance maximum of 557 nm, with 20 mM Hepes (pH 7.5) as a buffer and 20 mM Na2SO4 (for maintaining constant the ionic strength), following the initial rates of the CA-catalysed CO2 hydration reaction for a period of 10–100 s. The CO2 concentrations ranged from 1.7 to 17 mM for the determination of the kinetic parameters and inhibition constants. For each inhibitor, at least six traces of the initial 5 − 10% of the reaction have been used for determining the initial velocity. The uncatalyzed rates were determined in the same manner and subtracted from the total observed rates. Stock solutions of inhibitor (0.1 mM) were prepared in distilled − deionized water and dilutions up to 0.01 nM were done thereafter with the assay buffer. Inhibitor and enzyme solutions were preincubated together for 15 min at room temperature before assay to allow for the formation of the E − I complex. The inhibition constants were obtained by nonlinear least-squares methods using PRISM 3 and the Cheng − Prusoff equation, as reported earlier,[39]^,[40] and represent the mean from at least three different determinations. The enzyme concentrations were in the range 3–11 nM. All human CA (hCA) isoforms were recombinant ones obtained in-house as reported earlier.[41]^,[42]
# [2] = recombinant hCA II, stopped-flow CO2 hydration, 15 min preincubation, read-out: Ki hCA II
# [3] = recombinant hCA I, stopped-flow CO2 hydration, 15 min preincubation, read-out: Ki hCA I
# [4] = recombinant hCA XII, stopped-flow CO2 hydration, 15 min preincubation, read-out: Ki hCA XII
SMILES,Ki (hCA II; [2]),Ki (hCA IX),Ki (hCA I; [3]),Ki (hCA XII; [4]),further results
C#CC[Se]C(=O)C12CC3CC(CC(C3)C1)C2 [Compound 1b],> 100 µM,9.1 µM,> 100 µM,28.4 µM,isoform selectivity (in words) [1]: selectivity for tumour-associated isoforms IX and XII
C#CC[Se]C(=O)CCc1ccccc1 [Compound 6b],,25 µM,,,"Ki (hCA II): 9.5 µM; Ki (hCA I): 3.1 µM; times more potent than analog without the spacer (2b) (hCA I; CA I, Ki ratio versus 2b): 26 times; times more potent than analog with the double-bond spacer (5b) (hCA I; CA I, Ki ratio versus 5b): 7.7 times; Ki (hCA XII): 7 µM; Ki [1]: 2.2 to 48.5 µM"
C#CC[Se]C(=O)c1sccc1Cl [Compound 10b],88.5 µM,> 100 µM,> 100 µM,98.5 µM,
C#CC[Se]C(=O)[C@@H](C)c1ccc2cc(OC)ccc2c1 [Compound 16b],> 100 µM,24.7 µM,91.5 µM,> 100 µM,isoform selectivity (in words) [1]: selectivity for cytosolic CA I isoform and tumour-associated CA IX
C#CC[Se]C(=O)c1ccccc1OC(C)=O [Compound 14b],55.3 µM,> 100 µM,5 µM,89.7 µM,
C#CC[Se]C(=O)Cc1c(C)n(C(=O)c2ccc(Cl)cc2)c2ccc(OC)cc12 [Compound 17b],> 100 µM,58.5 µM,> 100 µM,> 100 µM,isoform selectivity (in words) [1]: selectivity for tumour-associated isoform IX
C#CC[Se]C(=O)c1ccno1 [Compound 12b],> 100 µM,22.4 µM,58.4 µM,66.6 µM,"decrease of inhibitory capacity on substitution of furan ring (11b) by isoxazole (hCA I; CA I, Ki ratio versus 11b): ~7 fold"
C#CC[Se]C(=O)c1cccnc1Cl [Compound 8b],8.6 µM,48.5 µM,2.2 µM,9.6 µM,"increase of inhibitory activity compared to unsubstituted pyridine (hCA I; CA I, Ki ratio versus 7b): 13.7 times; Ki [1]: 2.2 to 48.5 µM"
C#CC[Se]C(=O)C=Cc1ccccc1 [Compound 5b],42.7 µM,79.3 µM,24.1 µM,> 100 µM,
C#CC[Se]C(=O)c1ccccc1Nc1cccc(C)c1C [Compound 18b],4.5 µM,9.6 µM,> 100 µM,46.3 µM,fold greater inhibition potency for CA II than for CA I (hCA II; CA II versus CA I): 22 fold
C#CC[Se]C(=O)c1ccccc1O [Compound 13b],> 100 µM,54.8 µM,23.3 µM,> 100 µM,isoform selectivity (in words) [1]: selectivity for cytosolic CA I isoform and tumour-associated CA IX
C#CC[Se]C(=O)c1ccc2c(c1)OCO2 [Compound 4b],53.5 µM,67.7 µM,31.3 µM,> 100 µM,
C#CC[Se]C(=O)c1cccnc1 [Compound 7b],66.3 µM,38.2 µM,30.2 µM,85.1 µM,
C#CC[Se]C(=O)C(C)c1ccc(CC(C)C)cc1 (stereo not shown) [Compound 15b],> 100 µM,47.7 µM,77.1 µM,> 100 µM,isoform selectivity (in words) [1]: selectivity for cytosolic CA I isoform and tumour-associated CA IX
C#CC[Se]C(=O)c1ccccc1Nc1cccc(C(F)(F)F)c1 [Compound 19b],> 100 µM,9.5 µM,> 100 µM,> 100 µM,isoform selectivity (in words) [1]: selectivity for tumour-associated isoform IX
C#CC[Se]C(=O)c1ccccc1Cl [Compound 3b],,41.6 µM,,,Ki (hCA II): > 100 µM; Ki (hCA I): 42.1 µM; Ki (hCA XII): 28.8 µM
C#CC[Se]C(=O)c1ccccc1 [Compound 2b],> 100 µM,7.8 µM,80.5 µM,55.7 µM,times higher inhibition of CA IX than of isoform I (hCA IX; CA IX versus CA I): ~13 times; times higher inhibition of CA IX than of isoform II (hCA IX; CA IX versus CA II): ~10 times

# The next lines start with results.
Ki (hCA II; [2]),Ki (hCA IX),Ki (hCA I; [3]),SMILES,Ki (hCA XII; [4]),further results
> 100 µM,> 100 µM,> 100 µM,C=CC[Se]C(=O)c1cccnc1 [Compound 7a],,
> 100 µM,> 100 µM,> 100 µM,C=CC[Se]C(=O)c1ccco1 [Compound 11a],,
> 100 µM,> 100 µM,> 100 µM,C=CC[Se]C(=O)c1sccc1Cl [Compound 10a],,
49.9 µM,7.1 µM,8.5 µM,C#CC[Se]C(=O)c1ccco1 [Compound 11b],59.6 µM,
> 100 µM,> 100 µM,> 100 µM,C=CC[Se]C(=O)c1cccs1 [Compound 9a],,
> 100 µM,> 100 µM,> 100 µM,C=CC[Se]C(=O)C12CC3CC(CC(C3)C1)C2 [Compound 1a],,
> 100 µM,> 100 µM,> 100 µM,C=CC[Se]C(=O)c1ccno1 [Compound 12a],,
> 100 µM,> 100 µM,> 100 µM,C=CC[Se]C(=O)C=Cc1ccccc1 [Compound 5a],,
> 100 µM,> 100 µM,> 100 µM,C=CC[Se]C(=O)c1ccccc1 [Compound 2a],,
> 100 µM,> 100 µM,> 100 µM,C=CC[Se]C(=O)c1ccccc1Cl [Compound 3a],,
> 100 µM,> 100 µM,> 100 µM,C=CC[Se]C(=O)c1ccccc1OC(C)=O [Compound 14a],,
> 100 µM,> 100 µM,> 100 µM,C=CC[Se]C(=O)c1ccccc1O [Compound 13a],,
> 100 µM,89.4 µM,> 100 µM,C=CC[Se]C(=O)c1cccnc1Cl [Compound 8a],,
46.6 µM,> 100 µM,9.2 µM,C#CC[Se]C(=O)c1cccs1 [Compound 9b],97 µM,
> 100 µM,> 100 µM,> 100 µM,C=CC[Se]C(=O)[C@@H](C)c1ccc2cc(OC)ccc2c1 [Compound 16a],,
